In US20240319173A1, “REAGENTS AND METHODS FOR PROMOTING ARTERIAL ENDOTHELIUM DIFFERENTIATION AND NITRIC OXIDE PRODUCTION” (Wisconsin Alumni Research Foundation, priority 2023, published 2024):

Columns and labels:
AECs = test: Nitric oxide (NO) production assay with DAF-FM; type: cell-based, human; details: AECs treated for 2 days, 1 μM DAF-FM, flow cytometry (FIG. 4A, 4B)
Experimental: FIG. 4A is a graph of nitric oxide (NO) production in response to contacting NOS3-NLuc-2A-tdTomato construct-containing reporter cells derived from arterial endothelial with compounds identified in the screen for 2 days.
These AECs were seeded on a vitronectin-coated 24-well plate (1×10^5 cells/well) with FVIR medium. Candidate compounds were added to the medium. Two days later, the medium was changed to fresh FVIR media containing 1 μM DAF-FM (4-Amino-5-Methylamino-2′,7′-Difluorofluorescein Diacetate). Cells were cultured for 30 mins and harvested for flow cytometric analysis. DAF-FM is nonfluorescent until it reacts with NO to form a fluorescent benzotriazole. Results of these experiments are shown in FIG. 3A, FIG. 3B, and FIG. 4.

[1] = system: NOS3-NLuc-2A-tdTomato hPSCs; test: Arterial endothelial cell (AEC) differentiation, flow cytometry for CD144+ DLL4+ cells; type: cell-based, human; details: for AEC differentiation from PSCs: general statement, timing not given
From the text: FIG. 3A is a bar graph showing arterial endothelial cell differentiation in response to treatment on days 2 through 6 of different concentrations of compounds identified in compound screening assays. Differentiated arterial endothelial cells were identified by flow cytometry for CD144+ DLL4+ cells after 6 days of treatment.
FIG. 3B is a bar graph showing arterial endothelial cell differentiation in response to three specific compounds at day 3-6 of differentiation.
NOS3-NLuc-Tom human pluripotent stem cells (hPSCs), prepared as set forth above, were cultured in E8BAC medium for two days (day 0-2) to induce mesoderm formation. On days 2-5 cells received Five Factor medium daily, and AEC collected on day 6. More than 90% of the resulting cells were CD144^+CXCR4^+DLL4^+, consistent with differentiation to AEC cells.
C21-C33 compounds were further tested to confirm their effects. […] Thus, the effects of C21, C22, and C24-C31 on AEC differentiation from NOS3-NLuc-2A-tdTomato hPSCs were measured.

[2] = compound added from day 3 to day 6 of differentiation (FIG. 3B)
[3] = compound added from day 2 to day 6 of differentiation, dose-dependent (FIG. 3A)

Compound	NO production (DAF-FM fluorescence) compared to control treatment (AECs)	AEC differentiation from PSCs [1]	percentage of AEC on day 6 compared to control treatment [1, 2]	percentage of AEC on day 6 compared to control treatment [1, 3]
Cc1ccc(CN2C(=O)NC(C)(c3ccc(Cl)cc3Cl)C2=O)cc1 (centres unmarked) [C24]	increase	increase		
CCCCCCCCCCCCCCCCCCOCC(COP(=O)([O-])OCC[N+](C)(C)C)OC (centres unmarked) [C33, 1-Octadecyl-2-methylglycero-3 PC]		increase	increased	
CNC(=O)c1c(F)cccc1Nc1nc(Nc2cc3c(cc2OC)CCN3C(=O)CN(C)C)nc2[nH]ccc12 [C31, GSK1838705A, reference compound]	increase			
O=S(=O)(N1CCCCCC1)N1CCN(c2ccnc3cc(Cl)ccc23)CC1 [C21]	increase	increase	increased	increase
COc1ccc(C2CCCN2Cc2cc(C(C)(C)C)cc(O)c2O)cc1 (centres unmarked) [C22]	increase	increase		increase
CC1=CC(=O)C2=C(C)CC[C@@H]3[C@H](OC(=O)[C@H]3C)[C@@H]12 [C28, Leucomisine]		increase		
CCc1ccc(S(=O)(=O)N2CCCc3cc(C)ccc32)cc1 [C23]	increase	increase	increased	
CNS(=O)(=O)c1ccc(NC2CCc3ccccc32)c([N+](=O)[O-])c1 (centres unmarked) [C25]		increase		
